# Assay results taken from PMC11928319 (Nature Plants, 2025).
# Where no end group is shown, it is not given here.
# Tested on: filter-sterile supernatant of Rhodanobacter R179 (secreted peptidase(s))
# Assay: Peptide quantification by mass spectrometry after incubation in cell-free supernatant of Rhodanobacter R179
# Format: in vitro ADME
# Conditions: for peptide detected by mass spectrometry after incubation in supernatant of the R179 dssAB mutant: filter-sterile supernatant of dssAB mutant cultivated in XVM2 (OD600 = 0.4); for peptide detected by mass spectrometry after incubation in supernatant of the R179 dssAB mutant / peptide detected by mass spectrometry after incubation in supernatant of wild-type R179: LC-MS MS1 peak area; for peptide detected by mass spectrometry after incubation in supernatant of wild-type R179: filter-sterile supernatant of wild-type R179 cultivated in XVM2 minimal medium (OD600 = 0.4), light chamber, n = 3 culture supernatants; for Log10(total_area_MS1) / percent_rel_axenic: incubation 1h; for Log10(total_area_MS1): MS1 precursor area; for percent_rel_axenic: peptide relative to axenic; for Total_area MS1 of identified AtPep1 cleavage product (acetylated […]): 1 µM AtPep1, LC-MS [M+2H]; for Total_area MS1 (intact flg22): 1 µM, LC-MS [M+2H]
# Procedure: Elicitors were also supplemented into the medium prior to solidification at a final concentration of 1 µM. The flg22 ([…]) and AtPep1 ([…]) peptides were synthesized by EZbiolab. elf18^R179 (Ac-[…]) and elf18 (Ac-[…]) were synthesized by GenScript and EZbiolab, respectively. For inoculation with the bacterial supernatant, bacteria were cultivated overnight in XVM2 minimal medium (20 mM NaCl, 10 mM (NH4)2SO4, 5 mM MgSO4, 1 mM CaCl2, 0.16 mM KH2PO4, 0.32 mM K2HPO4, 0.01 mM FeSO4, 10 mM fructose, 10 mM sucrose, 0.03% Casamino acids, pH 6.7)[76] to a final concentration of OD600 = 0.4. Bacteria were pelleted by centrifugation (11,600 g, 2 min), and the supernatant was sterile-filtered using filter units with MF-Millipore membrane (0.22 µm; Millex). The supernatant was incubated in boiling water for 30 min for heat treatment. Then, 25 ml of 1× MS with 20 g l^−1 Bacto Agar was mixed with 25 ml of supernatant prior to medium solidification and poured into square petri dishes. Sterilized seeds were placed on solidified agar in square petri dishes and vertically incubated for 14 days.
# Bacterial supernatants were prepared as described in ‘Agar-based cultivation of axenic plants and co-cultivation with bacteria, bacterial supernatants and elicitors’. Here, additionally, the peptides dRGF1 (DYSNPGHHP-Hyp-RHN) and PSY1 (D-Y(SO3H)-[…]-Hyp-Hyp-S) synthesized by Scilight Peptide were incubated for 1 h with 1 µM of peptides in a plant cultivation light chamber (day-light condition; see ‘Plant cultivation conditions’), and the samples were frozen at −20 °C until further processing. For the investigation of AtPep1 degradation, the AtPep1 peptide was first modified by acetylation (six to seven times). To this end, 100-µl aliquots of peptides were treated with 10 µl of NHS acetate solution (1 M NHS acetate in 50% ACN/PBS) and incubated for 30 min with shaking. The reaction was quenched by the addition of 100 µl of 100 mM Tris-HCl (pH 8.5) and incubated for 10 min. For comparison of the non-acetylated peptides with the above-described modified AtPep1 peptides, aliquots of the non-acetylated peptides were processed as described above, but without the modifying NHS reaction. To this end, 100-µl aliquots of the sample were mixed with 100 µl of PBS buffer (137 mM NaCl, 2.7 mM KCl, 10 mM Na2HPO4, 1.8 mM KH2PO4; pH 7.4). The samples were then further diluted with 100 µl of 100 mM Tris-HCl (pH 8.5) and incubated for 10 min. All samples were acidified with 5 µl of TFA and desalted using StageTips with C18 Empore disk membranes (3M)[109]. The samples were dried in a vacuum evaporator and dissolved in 10 µl of 2% ACN (0.1% TFA for analysis).
# The samples were analysed using an EASY-nLC 1200 (Thermo Fisher) coupled to a QExactive Plus mass spectrometer (Thermo Fisher). Peptides were separated on 16-cm frit-less silica emitters (New Objective, 75 µm inner diameter), packed in-house with reversed-phase ReproSil-Pur C18 AQ 1.9 µm resin (Dr. Maisch). Peptides were loaded on the column and eluted for 50 min using a segmented linear gradient of 5% to 95% solvent B (0 min, 5% B; 0–5 min, 15% B; 5–35 min, 50% B; 35–45 min, 95% B; 45–50 min, 95% B) (solvent A: 0% ACN, 0.1% FA; solvent B: 80% ACN, 0.1% FA) at a flow rate of 300 nl min^−1. Mass spectra were acquired in data-dependent acquisition mode with a TOP10 method. Mass spectrometry spectra were acquired in the Orbitrap analyser with a mass range of 300–1,500 m/z at a resolution of 70,000 full width at half maximum (FWHM) and a target value of 3 × 10^6 ions. Precursors were selected with an isolation window of 1.3 m/z. Higher-energy collision dissociation (HCD) fragmentation was performed at a normalized collision energy of 25. Tandem mass spectrometry (MS/MS) spectra were acquired with a target value of 5 × 10^5 ions at a resolution of 17,500 FWHM, a maximum injection time of 85 ms and a fixed first mass of 100 m/z. […]
# [1] = R179 dssAB mutant supernatant, XVM2 medium, replicate 1
# [2] = R179 dssAB mutant supernatant, XVM2 medium, replicate 2
# [3] = R179 dssAB mutant supernatant, XVM2 medium, replicate 3
# [4] = R179 wt supernatant, XVM2 medium, replicate 1
# [5] = R179 wt supernatant, XVM2 medium, replicate 2
# [6] = R179 wt supernatant, XVM2 medium, replicate 3
# [7] = axenic XVM2 medium control, replicate 1
# [8] = axenic XVM2 medium control, replicate 2
# [9] = axenic XVM2 medium control, replicate 3
# [10] = supernatant of wt R179 in XVM2 (OD600 = 0.4), 1h, replicate 1
# [11] = supernatant of wt R179 in XVM2 (OD600 = 0.4), 1h, replicate 2
# [12] = supernatant of wt R179 in XVM2 (OD600 = 0.4), 1h, replicate 3
Substance,"peptide detected by mass spectrometry after incubation in supernatant of the R179 dssAB mutant (1 µM peptide, 1 h, n = 3)","peptide detected by mass spectrometry after incubation in supernatant of wild-type R179 (1 µM peptide, 1 h)",Log10(total_area_MS1) [1],Log10(total_area_MS1) [2],Log10(total_area_MS1) [3],percent_rel_axenic [1] [%],percent_rel_axenic [2] [%],percent_rel_axenic [3] [%],Log10(total_area_MS1) [5],Log10(total_area_MS1) [6],percent_rel_axenic [4] [%],percent_rel_axenic [5] [%],percent_rel_axenic [6] [%],Log10(total_area_MS1) [7],Log10(total_area_MS1) [8],Log10(total_area_MS1) [9],percent_rel_axenic [7] [%],percent_rel_axenic [8] [%],percent_rel_axenic [9] [%],other results
ATKVKAKQRGKEKVSSGRPGQHN [AtPep1],depleted,depleted,6.423,6.556,5.255,0.0095,0.0129,0.0006,5.86,6.66,0.086,0.0026,0.0164,10.4254,10.4615,10.4458,95.7106,103.993,100.296,"traces of AtPep1 detected after incubation in R179 supernatants (1 µM peptide, 1 h, R179 supernatant in XVM2, AtPep1 acetylated before LC-MS): < 0.01%; Log10(total_area_MS1) [4]: 7.379; Total_area MS1 of identified AtPep1 cleavage product (acetylated […]) (supernatant of R179 dssAB mutant in XVM2 (OD600 = 0.4), 1h, replicate 1): 2.38E+09; Total_area MS1 of identified AtPep1 cleavage product (acetylated […]) (supernatant of R179 dssAB mutant in XVM2 (OD600 = 0.4), 1h, replicate 2): 1.79E+09; Total_area MS1 of identified AtPep1 cleavage product (acetylated […]) (supernatant of R179 dssAB mutant in XVM2 (OD600 = 0.4), 1h, replicate 3): 2.15E+09; Total_area MS1 of identified AtPep1 cleavage product (acetylated […]) [10]: 1.79E+09; Total_area MS1 of identified AtPep1 cleavage product (acetylated […]) [11]: 1.66E+09; Total_area MS1 of identified AtPep1 cleavage product (acetylated […]) [12]: 1.89E+09"
Ac-SKEKFERTKPHVNVGTIG [elf18],depleted,depleted,0,0,0,0,0,0,0,0,0,0,0,10.4989,10.552,10.527,93.8398,106.053,100.108,–
QRLSTGSRINSAKDDAAGLQIA [flg22],efficient and rapid (1 h) proteolytic degradation,efficient and rapid (1 h) proteolytic degradation,0,0,0,0,0,0,0,0,0,0,0,–,8.543,8.745,–,75.7327,120.41,"peptide detected by mass spectrometry after incubation in heat-treated supernatant of wild-type R179 (1 µM peptide, 1 h, supernatant boiled 30 min, XVM2, LC-MS MS1 peak area, n = 3): detected; Total_area MS1 (intact flg22) (axenic XVM2 medium, 1h, replicate 2): 3.04E+08; Total_area MS1 (intact flg22) (axenic XVM2 medium, 1h, replicate 3): 4.20E+08; Total_area MS1 (intact flg22) (heat-treated (HK-wt) supernatant of wt R179 in XVM2, 1h, replicate 1): 1.96E+09; Total_area MS1 (intact flg22) (heat-treated (HK-wt) supernatant of wt R179 in XVM2, 1h, replicate 2): 3.13E+09; Total_area MS1 (intact flg22) (heat-treated (HK-wt) supernatant of wt R179 in XVM2, 1h, replicate 3): 9.82E+08; Total_area MS1 (intact flg22) [10]: 0.00E+00; Total_area MS1 (intact flg22) [11]: 0.00E+00; Total_area MS1 (intact flg22) [12]: 0.00E+00"
